Measurements as given in patent US20240103005A1, “N-ACRYLOYLINDOLES AND METHODS OF USE” (The University of Hong Kong, priority 2022, published 2024).
“Also recorded” adds a separate entry of the source.

Tests used:
[1] = Reaction kinetics of cysteine-reactive compounds with N-acetyl-L-cysteine methyl ester (LC-MS); format: physicochemical; conditions: for time to complete reaction with N-acetylcysteine methyl ester: PBS/MeOH 4:1; for calculated rate constant, fold faster than NAIA: reaction with N-Ac-Cys-OMe 250 μM
Protocol: Reaction Kinetics of Cysteine-Reactive Compounds with N-Acetyl-L-Cysteine Methyl Ester
Stock solution of cysteine-reactive compound in DMSO was diluted by PBS/MeOH solution mixture (4:1, v/v; 500 μL), reaching final concentration of 10 μM. Stock solution of N-acetyl-L-cysteine methyl ester in DMSO was then freshly prepared, and added to the compound solution at final concentration of 250 μM. The solution mixture was incubated at room temperature, and at predetermined time intervals, an aliquot of the reaction mixture (10 μL) was sent for LC-MS analysis on Waters Autopurification System using a SunFire C18 HPLC column (50×4.6 mm with 5 μm diameter particles, Waters). Separation was achieved by gradient elution from 5% to 100% MeCN in water (constant 0.1 vol % formic acid) over 4 min, isocratic elution with 100% MeCN (with 0.1 vol % formic acid) from 4 to 8 min, and returning to 5% MeCN in water (with 0.1 vol % formic acid) and equilibrated for 2 min. Selected ion chromatograms, with m/z corresponding to the molecular ion of the compound and/or the adduct, were extracted and the data was analyzed using MassLynx™ software by calculating the area under the curve. The peak area was then calibrated to concentration of the compound/adduct by a set of solution mixtures containing known concentrations of the compound/adduct.
The reactivity of NAIA with cysteine in aqueous buffer solution has been investigated by LC-MS experiments (FIGS. 1A-1J). […] Upon addition of N-acetylcysteine methyl ester (250 μM), NAIA-5 reacted quickly and completely with N-acetylcysteine methyl ester within […], as reflected by the diminishment of the peak of NAIA-5 at t=6.20 min with a concomitant growth of a new peak at t=5.60 min in the LC, which is attributable to the cysteine adduct of NAIA-5 based on the MS (FIGS. 1B-1G). […] This highlights the important contribution of aromaticity of indole scaffold to increase electrophilicity of acrylamide warhead for fast and complete cysteine reaction in aqueous buffer solution.
Next, we monitored the reaction between NAIA-amide (10 μM) and N-acetylcysteine methyl ester (250 μM) by LC-MS analysis (FIG. 17A). Complete conversion of NAIA-C5 amide was observed within 40 s as indicated by the disappearance of NAIA-C5 amide peak (t=5.09 min) and emergence of the adduct peat (t=4.80 min) in the LC trace (FIG. 17B). Likewise, the reaction of NAIA-C4 amide proceeded with fast kinetics and was completely consumed in 1 min (FIG. 17C). The calculated rate constant of NAIA-C5 amide and NAIA-C4 amide were 2-fold and 1.2-fold faster than NAIA (FIG. 17D). […] Owning to the excellent reaction rate of NAIA-C5 amide, it was taken forward for further comparative analysis in subsequent experiments.

[2] = Selectivity for reacting with Cys over other amino acids (LC-MS); format: physicochemical; conditions: compound 10 μM, amino acid 30 μM (3 equiv.), 30 min, PBS/MeOH 4:1
Protocol: Selectivity of NAI for Reacting with Cys Over Other Amino Acids
Stock solution of NAIA-4 and NAIA-5, respectively, in DMSO was diluted by PBS/MeOH solution mixture (4:1, v/v; 500 μL), reaching final concentration of 10 μM. Stock solution of amino acid in DMSO was then freshly prepared, and added to the compound solution at final concentration of 30 μM. The solution mixture was incubated at room temperature for 30 min. After that, an aliquot of the reaction mixture (10 μL) was sent for LC-MS analysis. Selected ion chromatograms, with m/z=325 corresponding to [NAIA-4+H]^+ or [NAIA-5+H]^+, were extracted and analyzed by integrating the area under curve.
(§1) As fast-reacting probes are often susceptible to hydrolysis, we sought to investigate the aqueous stability of NAIA-C5 amide. […] Taking the excellent reaction kinetics and a mere 14% degradation in 30 min into account, NAIA-C5 amide was considered to be a useful tool in cysteine profiling (FIG. 17C and FIG. 17F).

231MFP cell lysates = assay: Gel-based ABPP, Cys labeling of 231MFP cell lysates (in-gel fluorescence); format: biochemical; conditions: 30 min incubation
Protocol: FIGS. 10A-10D. Gel-based ABPP experiments of NAIA-4 to investigate its ability to label Cys in cell lysates and live cells. (FIGS. 10A-10B) 231MFP cell lysates (20 μg) were incubated with NAIA-4 or IAA at indicated concentrations for 30 min, following by CuAAC reaction with azide-fluor 545 (5 μM). The labeled proteins were then boiled with sampling buffer, and read out by in-gel fluorescence after SDS-PAGE. Quantified data were shown in average±s.e.m. from n=3 replicates/group. Statistical significance vs untreated control is expressed as *p<0.05; ***p<0.001, and vs different treatment groups is expressed as “p<0.01; ^###p<0.001. (FIGS. 10C-10D) 231MFP cells were pre-treated with NAIA-4 or IAA at indicated concentrations for 1 h. […] The cell lysates were labeled with azide-fluor 545 (25 μM) by CuAAC reaction, and the labeled protein were detected by in-gel fluorescence after SDS-PAGE. Quantified data were shown in average±s.e.m. from n=3 biological replicates/group. Statistical significance is expressed as *p<0.05; ***p<0.001.
In-Gel Fluorescence for Visualizing Cys Labeling by NAIAs and IAA In Vitro
HepG2 or 231MFP cells were lysed by probe sonication in DPBS, and cell debris were removed by centrifugation at 1,000 g for 5 min. Protein concentration of the lysates was determined by bicinchoninic acid (BCA) assay, and the lysates were then diluted to 2 mg/mL by DPBS. […]

231MFP cells [3] = assay: Gel-based ABPP, Cys labeling in live 231MFP cells; format: cell-based; conditions: 1 h pre-treatment
Protocol: FIGS. 10A-10D. Gel-based ABPP experiments of NAIA-4 to investigate its ability to label Cys in cell lysates and live cells. (FIGS. 10A-10B) 231MFP cell lysates (20 μg) were incubated with NAIA-4 or IAA at indicated concentrations for 30 min, following by CuAAC reaction with azide-fluor 545 (5 μM). The labeled proteins were then boiled with sampling buffer, and read out by in-gel fluorescence after SDS-PAGE. Quantified data were shown in average±s.e.m. from n=3 replicates/group. Statistical significance vs untreated control is expressed as *p<0.05; ***p<0.001, and vs different treatment groups is expressed as “p<0.01; ^###p<0.001. (FIGS. 10C-10D) 231MFP cells were pre-treated with NAIA-4 or IAA at indicated concentrations for 1 h. The cells were then washed with DPBS and lysed in DPBS by probe sonication. The cell lysates were labeled with azide-fluor 545 (25 μM) by CuAAC reaction, and the labeled protein were detected by in-gel fluorescence after SDS-PAGE. Quantified data were shown in average±s.e.m. from n=3 biological replicates/group. Statistical significance is expressed as *p<0.05; ***p<0.001.
In-Gel Fluorescence for Visualizing Cys Labeling by NAIAs and IAA in Live Cells
231MFP or HepG2 cells were grown in 10-cm plates in complete medium. […] Protein concentration of the lysates was determined by BCA assay, and the lysates were diluted to 2 mg/mL by DPBS. […]

231MFP cells [4] = assay: WST-8 cell viability assay; format: cell-based; conditions: WST-8, 2 h incubation; read-out: IC50 (cytotoxicity)
Protocol: WST-8 Cell Viability Assay of Cells Treated with NAIA-4 or IAA
231MFP cells were plated on 96-well plates (Corning, 3904) at 30,000 cells per well and allowed to grow in complete medium overnight. The cells were then incubated with DMSO solvent control, NAIA-4 or IAA at indicated concentrations for 2 h. The solution was replaced with new culture medium containing 10 μL of WST-8 solution (Abcam; ab228554) and incubated for 2 h in dark at 37° C. Cell viability were then assayed by the absorption at 460 nm on SpectraMax i3 (Molecular Devices).

[5] = Stability in aqueous buffer solution over time (LC-MS); format: physicochemical
Protocol: Stability of NAIA-5 in Aqueous Buffer Solution Over Time
NAIA-5 (10 μM) was dissolved in PBS/MeOH solution mixture (4:1, v/v; 500 μL) and stay at room temperature. At predetermined time intervals, an aliquot of the reaction mixture (10 μL) was sent for LC-MS analysis on Waters Autopurification System using a SunFire C18 HPLC column (50×4.6 mm with 5 μm diameter particles, Waters). Separation was achieved by gradient elution from 5% to 100% MeCN in water (constant 0.1 vol % formic acid) over 4 min, isocratic elution with 100% MeCN (with 0.1 vol % formic acid) from 4 to 8 min and returning to 5% MeCN in water (with 0.1 vol % formic acid) and equilibrated for 2 min. Selected ion chromatograms, with m/z=325 corresponding to [NAIA-5+H]^+, were extracted and analyzed by integrating the area under curve.
as §1

HCT116 cell lysates = assay: Gel-based ABPP, Cys labeling of HCT116 cell lysates; format: biochemical
Protocol: FIGS. 18A-18B Gel-based ABPP analysis of NAIA-amides, NAIA-5 and IAA on Cys labeling of HCT116 cell lysates in vitro. HCT116 cell lysates (100 μg) were incubated with the compounds at indicated concentrations and time intervals, following by CuAAC reaction with azide-fluor 545 (25 μM). The labeled proteins were then boiled with sampling buffer, and read out by in-gel fluorescence after SDS-PAGE.
Confirming the reaction between NAIA-C5 amide and cysteine in vitro, we moved on to evaluate its application for cysteine profiling in complex biological sample. To assess this, we performed gel-based ABPP in cell lysates and in live cells. HCT116 cell lysates were incubated with IAA, NAIA and NAIA-Amide, followed by installation of fluorophore by click chemistry. Then, the labelled proteins were resolved by SDS-PAGE and visualized by their in-gel fluorescence. […] In time-dependent experiments, a 15-minute incubation of NAIA-C5 amide with HCT116 cell lysates was sufficient to have decent labeling, highlighting its quick labeling (FIG. 18B).

[6] = compound 10 μM, N-Ac-Cys-OMe 250 μM

C#CCCCCNC(=O)COc1cccc2c1ccn2C(=O)C=C [NAIA-4]
time to complete reaction with N-acetylcysteine methyl ester [1, 6]: ≤ 120 s
selectivity toward cysteine over other amino acids [2]: excellent selectivity toward cysteine over other amino acids; also recorded: Significant decreases in NAIA-4 and NAIA-5 levels were only found in the solution mixture with N-acetyl-L-cysteine methyl ester
cysteine labeling (in-gel fluorescence) compared with IAA (231MFP cell lysates): better labeling from NAIA-4 than IAA at all the doses tested
cysteine labeling in live cells (in-gel fluorescence) compared with IAA (231MFP cells [3]): more labeling of functional cysteines by NAIA-4 than IAA
IC50 (231MFP cells [4]): > 40 µM

C#CCCCCNC(=O)c1cn(C(=O)C=C)c2ccccc12 [NAIA-C3 amide]
cysteine reaction rate (in words) [1, 6]: reacted relatively slower despite it still showed superior reaction kinetics over IAA

C#CCCCCNC(=O)c1cccc2c1ccn2C(=O)C=C [NAIA-C4 amide]
time to complete consumption by N-acetylcysteine methyl ester [1, 6]: 1 min
calculated rate constant, fold faster than NAIA [1]: 1.2 fold

C#CCCCCNC(=O)c1ccc2c(ccn2C(=O)C=C)c1 [NAIA-C5 amide]
time to complete reaction with N-acetylcysteine methyl ester [1, 6]: ≤ 40 s
calculated rate constant, fold faster than NAIA [1]: 2 fold
selectivity toward cysteine over other amino acids [2]: only incubation with cysteine consumed NAIA-C5 amide to an undetectable level
change of compound level in aqueous buffer solution over time (in words) ([5]; 10 μM, PBS/MeOH 4:1, room temperature): gradual degradation was observed in 3 hours
degradation in aqueous buffer ([5]; 30 min): 14%
in-gel fluorescence (in words) (HCT116 cell lysates): comparable to that by NAIA; also recorded: significantly stronger fluorescence was detected in samples incubated with NAIA or NAIA-C5 amide in a dose-dependent manner
overall in-gel fluorescence intensity, fold higher than IAA (HCT116 cell lysates): 3 fold
incubation time sufficient for decent labeling (HCT116 cell lysates; time-dependent experiment): 15 min

C=CC(=O)N1CCc2ccccc21 [NAine, N-acryloylindoline]
reaction kinetics with cysteine (k) ([1]; FIG. 7 legend summary): < 10^0 M^−1 s^−1
